Experiments:
[1] = tested on: cotton event pDAB4468.19.10.3; assay: Tolerance to 2,4-D in field trials (percent visual injury); assay type: in vivo, Gossypium hirsutum; details: for Percent visual injury: single post-emergence application, 2-4 leaf
Protocol: The tolerance of cotton event pDAB4468.19.10.3 to post-emergence applications of the phenoxyacetic acid herbicide, 2,4-D, was studied in field trials during the 2010 growing season. Herbicide tolerance was assessed following a single post-emergence application of 2,4-D applied to 2-4 leaf cotton event pDAB4468.19.10.3. The application of 2,4-D on cotton plants at this stage of development represents a herbicide application timing typically utilized to achieve satisfactory weed control by cotton growers.
2,4-D tolerance was measured by assessing cotton plants for injury at 0-1 day after application (DAA), 7-8 DAA, 12-16 DAA, and 24-32 DAA. Measurements for the 0-1 day time increment were taken from 6-24 hours after the application. Injury was assessed by assigning a percent visual injury rating using a linear percentage scale (1-100%) where 0% represents no visible herbicide injury and 100% represents plant death. The ratings were a composite score for any herbicide symptomology including epinasty, chlorosis, leaf necrosis and plant death. Herbicide symptomology present at 0-1 DAA was primarily epinasty and symptoms at later evaluations were primarily chlorosis and necrosis.
Field trials were conducted at eleven locations across the United States in typical cotton producing areas of Alabama, Arkansas, California, Georgia, Louisiana, Mississippi, North Carolina, South Carolina, and Tennessee. Trials were designed with four replications per treatment. Each replication was separated by a bare-soil alley 10-15 feet wide. Plot size for individual treatments was 2 rows by 20 feet long with rows typically spaced 36-40 inches apart. Experimental treatments consisted of cotton event pDAB4468.19.10.3 sprayed with 2,4-D amine (Weedar 64™, NuFarm, Burr Ridge, Ill.) at either 0, 1120, 2240, or 4480 grams acid equivalent per hectare (g ae/ha) applied in 15 gallons per acre of final spray solution. A non-transformed cotton comparator treatment was not included in these experiments since treatment with 2,4-D at rates much lower than the lowest rate tested (1120 g ae/ha) are known to result in plant death.

[2] = tested on: cotton event pDAB4468.19.10.3; assay: Agronomic characterization in field trials with and without herbicide applications; assay type: in vivo, Gossypium hirsutum; details: sprayed vs unsprayed event plants; standard field application rates
Source text: The agronomic characteristics of cotton event pDAB4468.19.10.3 were quantified in field trials conducted across geographically different locations throughout the cotton belt in 2010. These studies compared the agronomic performance of cotton event pDAB4468.19.10.3 (with and without applications of the herbicides 2,4-D and glufosinate) to the non-transgenic near-isoline control, Coker 310. No agronomically meaningful unintended differences were observed between cotton event pDAB4468.19.10.3 and the Coker 310 control plants. […] Additionally, the agronomic performance of cotton event pDAB4468.19.10.3 was not altered as a result of the application of the herbicides, 2,4-D and glufosinate, as compared to the cotton event pDAB4468.19.10.3 plants which were not sprayed with the herbicide treatments. […]
Seeds of cotton event pDAB4468.19.10.3 and seeds of the near-isoline control line, Coker 310, were planted at a rate of 80 seeds per 20 ft row with a row spacing of 34-38 inches (86.36 cm-96.52 cm). […] The measured agronomic characteristics were equivalent for cotton event pDAB4468.19.10.3 as compared to the Coker 310 near-isoline control plants for all of the agronomic characteristics measured and statistically analyzed. […]

non-transformed cotton = details: rates much lower than the lowest rate tested (1120 g ae/ha); known; cited from earlier work

Question: For `O=C(O)COc1ccc(Cl)cc1Cl` [2,4-D], which “herbicide injury noted in the field experiments” value ([1]; 1120-4480 g ae/ha, with the exception of transient epinasty 0-1 DAA) is on record?
Answer: The value was “no agronomically-significant herbicide injury”.

Question: What about the Percent visual injury ([1]; 1120 g ae/ha, 0-1 DAA) of the same compound?
Answer: Its Percent visual injury is 3.6%.

Question: And the Percent visual injury ([1]; 1120 g ae/ha, 7-8 DAA)?
Answer: Its Percent visual injury is 1.4%.

Question: And the Percent visual injury ([1]; 1120 g ae/ha, 12-16 DAA)?
Answer: The Percent visual injury was 0.6%.

Question: What about the Percent visual injury ([1]; 1120 g ae/ha, 24-32 DAA) of the same compound?
Answer: The Percent visual injury was 0.0%.

Question: And the Percent visual injury ([1]; 2240 g ae/ha, 0-1 DAA)?
Answer: Its Percent visual injury is 11.8%.

Question: What about the Percent visual injury ([1]; 2240 g ae/ha, 7-8 DAA) of the same compound?
Answer: Its Percent visual injury is 3.5%.

Question: What about the Percent visual injury ([1]; 2240 g ae/ha, 12-16 DAA) of the same compound?
Answer: The Percent visual injury was 2.7%.

Question: What about the Percent visual injury ([1]; 2240 g ae/ha, 24-32 DAA) of the same compound?
Answer: The Percent visual injury was 0.1%.

Question: What about the “crop injury beyond the 7-8 DAA evaluation interval” value ([1]; 4480 g ae/ha (>4x rate required for weed control)) of the same compound?
Answer: The value was “little crop injury”.

Question: And the Percent visual injury ([1]; 4480 g ae/ha, 0-1 DAA)?
Answer: Its Percent visual injury is 19.4%.

Question: And the Percent visual injury ([1]; 4480 g ae/ha, 7-8 DAA)?
Answer: Its Percent visual injury is 11.0%.

Question: What about the Percent visual injury ([1]; 4480 g ae/ha, 12-16 DAA) of the same compound?
Answer: The Percent visual injury was 5.9%.

Question: And the Percent visual injury ([1]; 4480 g ae/ha, 24-32 DAA)?
Answer: Its Percent visual injury is 0.6%.

Question: What about the “agronomic performance of the event as a result of herbicide application” value [2] of the same compound?
Answer: The value was “not altered”.

Question: And the “result of treatment of non-transformed cotton” value (non-transformed cotton)?
Answer: The value was “plant death”.
